Test results from patent US9732386B2, “Cell aging as a unique biomarker of major depression” (THE REGENTS OF THE UNIVERSITY OF CALIFORNIA, priority 2010, dated 2017).

System: subjects with Major Depressive Disorder
Assay: Hamilton Depression Rating Scale (HDRS) ratings over 8 weeks of open-label sertraline treatment
Type: in vivo, human

In the case of `CN[C@H]1CC[C@@H](c2ccc(Cl)c(Cl)c2)c2ccccc21` [sertraline], the “HDRS ratings, Mean±SD” value (Week 8 of sertraline treatment, 50 to max 200 mg per day, 16 depressed subjects, Baseline 18.50±3.65, paired t=5.67, p<0.000) is reported as 10.19±4.62, the “range of changes in HDRS ratings” value (over the 8-week course of sertraline treatment, individual subjects) is reported as 27% worsening to 82% improvement and the “mean improvement in HDRS ratings” value (over the 8-week course of sertraline treatment, relative to baseline) is reported as 42.3±31%.
